Assay results published in patent US11724992B2 (Novartis AG, priority 2017, dated 2023).

The compounds below were run on IL-1β production in PMA-differentiated THP-1 cells (assay: IL-1β production in PMA-differentiated THP-1 cells stimulated with gramicidin (hTHP-1 assay, 2% fetal bovine serum; Procedures 1-3)). Conditions: Homo sapiens, THP-1, hTHP-1 assay containing 2% fetal bovine serum; class symbols; read-out: hTHP-1 IC50 (Average IC50 of compounds in hTHP-1 assay).
Assay type: cell-based, human
Description: The following protocol is suitable for testing the activity of the compounds disclosed herein.
Procedure 1: IL-1β Production in PMA-Differentiated THP-1 Cells Stimulated with Gramicidin
THP-1 cells were purchased from the American Type Culture Collection and sub-cultured according to instructions from the supplier. Cells were cultured in complete RPMI 1640 (containing 10% heat inactivated FBS, penicillin (100 units/ml) and streptomycin (100 μg/ml)), and maintained in log phase prior to experimental setup. Prior to the experiment, compounds were dissolved in dimethyl sulfoxide (DMSO) to generate a 30 mM stock. The compound stock was first pre-diluted in DMSO to 3, 0.34, 0.042 and 0.0083 mM intermediate concentrations and subsequently spotted using Echo550 liquid handler into an empty 384-well assay plate to achieve desired final concentration (e.g. 100, 33, 11, 3.7, 1.2, 0.41, 0.14, 0.046, 0.015, 0.0051, 0.0017 μM). DMSO was backfilled in the plate to achieve a final DMSO assay concentration of 0.37%. The plate was then sealed and stored at room temperature until required.
THP-1 cells were treated with PMA (Phorbol 12-myristate 13-acetate) (20 ng/ml) for 16-18 hours. On the day of the experiment the media was removed and adherent cells were detached with trypsin for 5 minutes. Cells were then harvested, washed with complete RPMI 1640, spun down, and resuspended in RPMI 1640 (containing 2% heat inactivated FBS, penicillin (100 units/ml) and streptomycin (100 μg/ml). The cells were plated in the 384-well assay plate containing the spotted compounds at a density of 50,000 cells/well (final assay volume 50 μl). Cells were incubated with compounds for 1 hour and then stimulated with gramicidin (5 μM) (Enzo) for 2 hours. Plates were then centrifuged at 340 g for 5 min. Cell free supernatant (40 μL) was collected using a 96-channel PlateMaster (Gilson) and the production of IL-1β was evaluated by HTRF (cisbio). The plates were incubated for 18 h at 4° C. and read using the preset HTRF program (donor emission at 620 nm, acceptor emission at 668 nm) of the SpectraMax i3x spectrophotometer (Molecular Devices, software SoftMax 6). A vehicle only control and a dose titration of CRID3 (100-0.0017 μM) were run concurrently with each experiment.
Procedure 2: IL-1β Production in PMA-Differentiated THP-1 Cells Stimulated with Gramicidin
THP-1 cells were purchased from the American Type Culture Collection and sub-cultured according to instructions from the supplier. Prior to experiments, cells were cultured in complete RPMI 1640 (containing 10% heat inactivated FBS, penicillin (100 units/ml) and streptomycin (100 μg/ml)), and maintained in log phase prior to experimental setup. Prior to the experiment THP-1 were treated with PMA (Phorbol 12-myristate 13-acetate) (20 ng/ml) for 16-18 hours. Compounds were dissolved in dimethyl sulfoxide (DMSO) to generate a 30 mM stock. On the day of the experiment the media was removed and adherent cells were detached with trypsin for 5 minutes. Cells were then harvested, washed with complete RPMI 1640, spun down, resuspended in RPMI 1640 (containing 2% heat inactivated FBS, penicillin (100 units/ml) and streptomycin (100 μg/ml). The cells were plated in a 384-well plate at a density of 50,000 cells/well (final assay volume 50 μl). Compounds were first dissolved in assay medium to obtain a 5× top concentration of 500 μM. 10 step dilutions (1:3) were then undertaken in assay medium containing 1.67% DMSO. 5× compound solutions were added to the culture medium to achieve desired final concentration (e.g. 100, 33, 11, 3.7, 1.2, 0.41, 0.14, 0.046, 0.015, 0.0051, […]). Final DMSO concentration was at 0.37%. Cells were incubated with compounds for 1 hour and then stimulated with gramicidin (5 μM) (Enzo) for 2 hours. Plates were then centrifuged at 340 g for 5 min. Cell free supernatant (40 μL) was collected using a 96-channel PlateMaster (Gilson) and the production of IL-1β was evaluated by HTRF (cisbio). […]

| IC50 | Structure (SMILES) |
| --- | --- |
| 8 to 40 nM | CC(C)(O)c1ncc([S@](N)(=O)=NC(=O)Nc2c3c(cc4c2CC4)CCC3)s1 (single isomer, unassigned) [Example 224] |
| 1000 to 5000 nM | CC(C)(O)c1ncc([S@@](N)(=O)=NC(=O)Nc2c3c(cc4c2CC4)CCC3)s1 (single isomer, unassigned) [Example 225] |
| 8 to 40 nM | Cc1oc(S(N)(=O)=NC(=O)Nc2c3c(cc4c2CCC4C)CCC3)cc1C(C)(C)O (single isomer, unassigned) [Example 305, (R,S) or (R,R)-4-(2-hydroxypropan-2-yl)-5-methyl-N′-((3-methyl-1,2,3,5,6,7-hexahydro-s-indacen-4-yl)carbamoyl)furan-2-sulfonimidamide; resolved from example 123] |

Same assay, conditions: hTHP-1 assay containing 2% fetal bovine serum; class symbols; read-out: hTHP-1 IC50 (Average IC50 of compounds in hTHP-1 assay)

| IC50 | Structure (SMILES) |
| --- | --- |
| 1000 to 5000 nM | CC(C)(O)c1coc(S(N)(=O)=NC(=O)Nc2c3c(cc4c2CCC4)CCC3)c1 (single isomer, unassigned) [Example 202] |
| < 8 nM | CC(C)(O)c1coc(S(N)(=O)=NC(=O)Nc2c3c(cc4c2CCC4)CCC3)c1 (single isomer, unassigned) [Example 203] |
| 8 to 40 nM | CC(C)(O)c1csc(S(N)(=O)=NC(=O)Nc2c3c(c(F)c4c2CCC4)CCC3)c1 (single isomer, unassigned) [Example 206] |
| 200 to 1000 nM | CC(C)(O)c1csc(S(N)(=O)=NC(=O)Nc2c3c(c(F)c4c2CCC4)CCC3)c1 (single isomer, unassigned) [Example 207] |
| < 8 nM | CC(C)(O)c1cnc(S(N)(=O)=NC(=O)Nc2c3c(cc4c2CCC4)CCC3)s1 (single isomer, unassigned) [Example 296, (R) or (S)-N′-((1,2,3,5,6,7-hexahydro-s-indacen-4-yl)carbamoyl)-5-(2-hydroxypropan-2-yl)thiazole-2-sulfonimidamide] |
| 200 to 1000 nM | CC(C)(O)c1cnc(S(N)(=O)=NC(=O)Nc2c3c(cc4c2CCC4)CCC3)s1 (single isomer, unassigned) [Example 297, (S) or (R)-N′-((1,2,3,5,6,7-hexahydro-s-indacen-4-yl)carbamoyl)-5-(2-hydroxypropan-2-yl)thiazole-2-sulfonimidamide] |
| 8 to 40 nM | Cc1oc(S(N)(=O)=NC(=O)Nc2c3c(cc4c2C(C)CC4)CCC3)cc1C(C)(C)O (single isomer, unassigned) [Example 303, (R,S) or (R,R) or (S,R) or (S,S)-4-(2-hydroxypropan-2-yl)-5-methyl-N′-((3-methyl-1,2,3,5,6,7-hexahydro-s-indacen-4-yl)carbamoyl)furan-2-sulfonimidamide resolved from example 127] |
| 40 to 200 nM | Cc1oc(S(N)(=O)=NC(=O)Nc2c3c(cc4c2CCC4C)CCC3)cc1C(C)(C)O (single isomer, unassigned) [Example 304, (R,R) or (R,S)-4-(2-hydroxypropan-2-yl)-5-methyl-N′-((3-methyl-1,2,3,5,6,7-hexahydro-s-indacen-4-yl)carbamoyl)furan-2-sulfonimidamide; resolved from example 123] |

More lines, now with the values behind:

| Structure (SMILES) | IC50 |
| --- | --- |
| CC(C)c1cc(C#N)cc(C(C)C)c1NC(=O)N=S(N)(=O)c1sc(C(C)(C)O)cc1F (single isomer, unassigned) [Example 182] | 8 to 40 nM |
| CC(C)c1cc(C#N)cc(C(C)C)c1NC(=O)N=S(N)(=O)c1sc(C(C)(C)O)cc1F (single isomer, unassigned) [Example 183] | 200 to 1000 nM |
| CC(C)c1cc(C#N)cc(C(C)C)c1NC(=O)N=S(N)(=O)c1cc(C#N)cc(C(C)(C)O)c1 (single isomer, unassigned) [Example 184] | 200 to 1000 nM |
| CC(C)c1cc(C#N)cc(C(C)C)c1NC(=O)N=S(N)(=O)c1cc(C#N)cc(C(C)(C)O)c1 (single isomer, unassigned) [Example 185] | 5000 to 30000 nM |
| CC(C)c1cc(C#N)cc(C(C)C)c1NC(=O)N=S(N)(=O)c1ccc(C(C)(C)O)s1 (single isomer, unassigned) [Example 186] | 40 to 200 nM |
| CC(C)c1cc(C#N)cc(C(C)C)c1NC(=O)N=S(N)(=O)c1ccc(C(C)(C)O)s1 (single isomer, unassigned) [Example 187] | 5000 to 30000 nM |
| CC(C)(O)c1nc(CO)c(S(N)(=O)=NC(=O)Nc2c3c(c(C#N)c4c2CCC4)CCC3)s1 (single isomer, unassigned) [Example 190] | 200 to 1000 nM |
| CC(C)(O)c1nc(CO)c(S(N)(=O)=NC(=O)Nc2c3c(c(C#N)c4c2CCC4)CCC3)s1 (single isomer, unassigned) [Example 191] | 5000 to 30000 nM |
| CC(C)c1cc(C#N)c(F)c(C(C)C)c1NC(=O)N=S(N)(=O)c1sc(C(C)(C)O)nc1CO (single isomer, unassigned) [Example 194] | 1000 to 5000 nM |
| CC(C)c1cc(C#N)c(F)c(C(C)C)c1NC(=O)N=S(N)(=O)c1sc(C(C)(C)O)nc1CO (single isomer, unassigned) [Example 195] | 5000 to 30000 nM |
| CC(C)c1ccc(F)c(C(C)C)c1NC(=O)N=S(N)(=O)c1cnc(C(C)(C)O)s1 (single isomer, unassigned) [Example 298, (R) or (S)-N′-((3-fluoro-2,6-diisopropylphenyl)carbamoyl)-2-(2-hydroxypropan-2-yl)thiazole-5-sulfonimidamide] | 40 to 200 nM |
| CC(C)c1ccc(F)c(C(C)C)c1NC(=O)N=S(N)(=O)c1cnc(C(C)(C)O)s1 (single isomer, unassigned) [Example 299, (S) or (R)-N′-((3-fluoro-2,6-diisopropylphenyl)carbamoyl)-2-(2-hydroxypropan-2-yl)thiazole-5-sulfonimidamide] | 1000 to 5000 nM |
| CC(C)c1ccc(C#N)c(C(C)C)c1NC(=O)N=S(N)(=O)c1ccc(C(C)(C)O)s1 (single isomer, unassigned) [Example 300, (R) or (S)-N′-((3-cyano-2,6-diisopropylphenyl)carbamoyl)-5-(2-hydroxypropan-2-yl)thiophene-2-sulfonimidamide] | 200 to 1000 nM |
| Cc1oc(S(N)(=O)=NC(=O)Nc2c3c(cc4c2C(C)CC4)CCC3)cc1C(C)(C)O (single isomer, unassigned) [Example 302, (R,R) or (R,S) or (S,S) or (S,R)-4-(2-hydroxypropan-2-yl)-5-methyl-N′-((3-methyl-1,2,3,5,6,7-hexahydro-s-indacen-4-yl)carbamoyl)furan-2-sulfonimidamide resolved from example 127] | 200 to 1000 nM |
